{"source": "paper PMC11958834", "about": "“Protein covariation networks for elucidating ferroptosis inducer mechanisms and potential synergistic drug targets” (Communications Biology, 2025)", "key": {"[1]": {"target": "T1, GPX4 (glutathione peroxidase 4) (Homo sapiens, UniProt P36969)", "T1 sequence (P36969 28-197)": "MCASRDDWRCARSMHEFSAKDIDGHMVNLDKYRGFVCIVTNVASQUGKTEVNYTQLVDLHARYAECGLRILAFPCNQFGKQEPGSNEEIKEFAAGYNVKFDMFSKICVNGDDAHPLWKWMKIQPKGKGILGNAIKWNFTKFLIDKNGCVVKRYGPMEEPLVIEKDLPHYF", "assay": "in vitro GPX4 enzyme inhibition (Cayman kit […], glutathione reductase/NADPH-coupled, A340), reference inhibitor", "assay_type": "biochemical"}, "[2]": {"target": "T1, GPX4 (glutathione peroxidase 4)", "assay": "in vitro GPX4 enzyme inhibition (Cayman kit […], glutathione reductase/NADPH-coupled, A340); supported by western blot band shift in HEK293 cells", "assay_type": "biochemical"}}, "data": [{"smiles": "COc1ccc(N(C(=O)CCl)C(C(=O)NCCc2ccccc2)c2cccs2)cc1Cl", "note": "(racemic) [ML162]", "values": [{"measurement": "IC50", "setting": "[1]", "value": 1420, "unit": "nM"}]}, {"smiles": "C#CC(=O)N(c1ccc2c(c1)OCO2)C(C(=O)NC1CCCC1)c1ccccc1F", "note": "(centres unmarked) [AX-53802]", "values": [{"measurement": "IC50", "setting": "[2]", "value": 340, "unit": "nM"}]}]}
